In US7479489B2, “Heterocyclic antiviral compounds” (Roche Palo Alto LLC, priority 2004, dated 2009):

Question: Which melting point does the source give for `Cc1ccc2c(c1)c(O)c(C1=CS(=O)(=O)c3ccccc3N1)c(=O)n2Cc1ccc(F)cc1` here?
Answer: 247 to 249 °C

Question: For `COc1ccc2c(c1)c(O)c(C1=CS(=O)(=O)c3ccccc3N1)c(=O)n2CCC1CC1`, which melting point is on record?
Answer: 220 to 221 °C

Question: With `CN1C(c2nc(Cc3ccc(F)cc3)c3ccc(F)cc3c2O)=CS(=O)(=O)c2cc(Cl)ccc21` as the compound, how does the melting point read?
Answer: 254 to 256 °C

Question: Which melting point does the source give for `CC(C)(C)[C@H]1C(O)=C(C2=CS(=O)(=O)c3cc(N)ccc3N2)C(=O)N1CCC1CC1` here?
Answer: 105 to 110 °C

Question: With `CC(C)(C)[C@H]1C(O)=C(C2=CS(=O)(=O)c3cc(NS(C)(=O)=O)ccc3N2)C(=O)N1CCC1CC1` as the compound, how does the melting point read?
Answer: 140 to 145 °C

Question: Which melting point does the source give for `N#Cc1cccc(Cn2c(=O)c(C3=CS(=O)(=O)c4ccccc4N3)c(O)c3cc(F)ccc32)c1` here?
Answer: > 250 °C

Question: Which melting point does the source give for `O=c1c(C2=CS(=O)(=O)c3cc(NS(=O)(=O)c4ccccc4)ccc3N2)c(O)c2cc(F)ccc2n1CCC1CC1` here?
Answer: > 200 °C

Question: For `CC(C)CCN1C(=O)C(C2=CS(=O)(=O)c3ccccc3N2)=C(O)[C@@H]1C1CCCCC1`, which melting point is on record?
Answer: 98 to 100 °C

Question: Which melting point does the source give for `CC(C)CCn1c(=O)c(C2=CS(=O)(=O)c3ccc(C#N)cc3N2)c(O)c2ccccc21` here?
Answer: > 250 °C

Question: Which melting point does the source give for `CNC(=O)Nc1ccc2c(c1)S(=O)(=O)C=C(c1c(O)c3cc(F)ccc3n(CCC3CC3)c1=O)N2` here?
Answer: > 220 °C

Question: With `COc1ccc2c(c1)S(=O)(=O)C=C(c1c(O)c3cc(F)ccc3n(Cc3ccc(F)cc3)c1=O)N2` as the compound, how does the melting point read?
Answer: > 250 °C

Question: With `O=C1C(C2=CS(=O)(=O)c3ccccc3N2)=C(O)[C@H](C2CCCCC2)N1Cc1ccc(F)cc1` as the compound, how does the melting point read?
Answer: 180 °C (dec.)

Question: For `O=c1c(C2=CS(=O)(=O)c3cc(NS(=O)(=O)C4CC4)ccc3N2)c(O)c2cc(F)ccc2n1CCC1CC1`, which melting point is on record?
Answer: 145 to 155 °C

Question: With `CS(=O)(=O)Nc1ccc2c(c1)S(=O)(=O)C=C(c1c(O)c3cc(F)ccc3n(CCC3CC3)c1=O)N2.[Na]` as the compound, how does the melting point read?
Answer: > 250 °C

Question: For `Cc1noc(C)c1S(=O)(=O)Nc1ccc2c(c1)S(=O)(=O)C=C(c1c(O)c3cc(F)ccc3n(CCC3CC3)c1=O)N2`, which melting point is on record?
Answer: 150 to 157 °C

Question: Which melting point does the source give for `CC(C)CCn1c(=O)c(C2=CS(=O)(=O)c3ccc(Cl)cc3N2)c(O)c2ccccc21` here?
Answer: 90 to 110 °C

Question: For `CN(c1ccc2c(c1)S(=O)(=O)C=C(c1c(O)c3cc(F)ccc3n(CCC3CC3)c1=O)N2)S(C)(=O)=O`, which melting point is on record?
Answer: 208 to 212 °C

Question: With `COC(=O)COc1ccc2c(c1)S(=O)(=O)C=C(c1c(O)c3cc(F)ccc3n(Cc3ccc(F)cc3)c1=O)N2` as the compound, how does the melting point read?
Answer: 200 to 207 °C

Question: With `CC(C)(C)[C@H]1C(O)=C(C2=CS(=O)(=O)c3cc([N+](=O)[O-])ccc3N2)C(=O)N1Cc1ccc(F)cc1` as the compound, how does the melting point read?
Answer: 138 to 147 °C

Question: Which melting point does the source give for `CS(=O)(=O)Nc1ccc2c(c1)S(=O)(=O)C=C(c1c(O)c3cc(F)ccc3n(Cc3ccc(F)c(C(F)(F)F)c3)c1=O)N2` here?
Answer: 185.8 to 187 °C

Question: Which melting point does the source give for `NC(=O)CCOc1ccc2c(c1)S(=O)(=O)C=C(c1c(O)c3cc(F)ccc3n(CCC3CC3)c1=O)N2` here?
Answer: > 250 °C

Question: Which melting point does the source give for `Nc1ccc2c(c1)S(=O)(=O)C=C(c1c(O)c3ccccc3n(CCC3CC3)c1=O)N2` here?
Answer: > 250 °C

Question: With `CCCS(=O)(=O)Nc1ccc2c(c1)S(=O)(=O)C=C(c1c(O)c3cc(F)ccc3n(CCC3CC3)c1=O)N2` as the compound, how does the melting point read?
Answer: 145 to 150 °C

Question: For `CC(=O)Nc1ccc2c(c1)S(=O)(=O)C=C(c1c(O)c3cc(F)ccc3n(Cc3ccc(F)cc3)c1=O)N2`, which melting point is on record?
Answer: > 250 °C

Question: Which melting point does the source give for `CS(=O)(=O)Nc1ccc2c(c1)S(=O)(=O)C=C(c1c(O)c3cc(F)ccc3n(Cc3cccnc3)c1=O)N2` here?
Answer: 174 to 186 °C

Question: For `CS(=O)(=O)Nc1ccc2c(c1)S(=O)(=O)C=C(c1c(O)c3cc(F)ccc3n(Cc3ccncc3)c1=O)N2.O=C(O)C(F)(F)F`, which melting point is on record?
Answer: 167 to 169 °C

Question: Which melting point does the source give for `O=c1c(C2=CS(=O)(=O)c3ccccc3N2)c(O)c2cc(F)ccc2n1Cc1ccc(F)c(F)c1.[Na]` here?
Answer: 230 to 235 °C

Question: With `CC[C@H](C)[C@H]1C(O)=C(C2=CS(=O)(=O)c3ccccc3N2)C(=O)N1CCC(C)C` as the compound, how does the melting point read?
Answer: 72 to 80 °C

Question: For `Cc1ccc2c(c1)c(O)c(C1=CS(=O)(=O)c3ccccc3N1)c(=O)n2Cc1ccc(F)cc1.[Na]`, which melting point is on record?
Answer: > 250 °C

Question: For `CN(c1ccc2c(c1)S(=O)(=O)C=C(c1c(O)c3cc(F)ccc3n(Cc3ccc(F)cc3)c1=O)N2)S(C)(=O)=O`, which melting point is on record?
Answer: 214 to 218 °C

Question: With `Nc1ccc2c(c1)S(=O)(=O)C=C(c1c(O)c3cc(F)ccc3n(Cc3ccc(F)cc3)c1=O)N2` as the compound, how does the melting point read?
Answer: > 250 °C

Question: With `CC(C)CCn1c(=O)c(C2=CS(=O)(=O)c3ccccc3N2)c(O)c2cc(Cl)ccc21` as the compound, how does the melting point read?
Answer: 194 to 197 °C

Question: For `COc1cc(CN2C(=O)C(C3=CS(=O)(=O)c4cc(NS(C)(=O)=O)ccc4N3)=C(O)[C@@H]2C(C)(C)C)ccc1F`, which melting point is on record?
Answer: 175 to 180 °C

Question: With `O=c1c(C2=CS(=O)(=O)c3cc(OCc4ccccc4)ccc3N2)c(O)c2cc(F)ccc2n1Cc1ccc(F)cc1` as the compound, how does the melting point read?
Answer: 242 to 244 °C

Question: For `CS(=O)(=O)Nc1ccc2c(c1)S(=O)(=O)C=C(c1c(O)c3cc(F)ccc3n(Cc3ccc(F)c(F)c3)c1=O)N2`, which melting point is on record?
Answer: 148.2 to 149.4 °C

Question: Which melting point does the source give for `CC(C)CCN1C(=O)C(C2=CS(=O)(=O)c3ccccc3N2)=C(O)[C@@H]1C(C)(C)C` here?
Answer: 85 to 87 °C

Question: Which melting point does the source give for `CC[C@H](C)[C@H]1C(O)=C(C2=CS(=O)(=O)c3ccccc3N2)C(=O)N1Cc1ccccc1` here?
Answer: 88 to 95 °C

Question: For `O=c1c(C2=CS(=O)(=O)c3ccccc3N2)c(O)c2cc(F)ccc2n1Cc1ccc(F)c(F)c1`, which melting point is on record?
Answer: 230 to 235 °C

Question: With `CC(C)C[C@H]1C(O)=C(C2=CS(=O)(=O)c3ccccc3N2)C(=O)N1Cc1ccc(F)cc1` as the compound, how does the melting point read?
Answer: 160 °C (dec.)

Question: With `CS(=O)(=O)Nc1ccc2c(c1)S(=O)(=O)C=C(c1c(O)c3cc(F)ccc3n(CC3CCCCC3)c1=O)N2` as the compound, how does the melting point read?
Answer: 184 to 203 °C

Question: For `CC(C)CCn1c(=O)c(C2=CS(=O)(=O)c3ccccc3N2)c(O)c2cc(F)cnc21`, which melting point is on record?
Answer: 90 to 112 °C

Question: With `O=c1c(C2=CS(=O)(=O)c3ccccc3N2)c(O)c2cc(Cl)ccc2n1CCC1CC1` as the compound, how does the melting point read?
Answer: 227 to 229 °C

Question: Which melting point does the source give for `O=C1C(C2=CS(=O)(=O)c3ccccc3N2)=C(O)[C@H](C2CCCCC2)N1Cc1ccc(F)cc1.[Na]` here?
Answer: > 250 °C

Question: Which melting point does the source give for `O=c1c(C2=CS(=O)(=O)c3ccccc3N2)c(O)c2ccccc2n1Cc1ccccc1F` here?
Answer: > 200 °C

Question: With `CNC(=O)COc1ccc2c(c1)S(=O)(=O)C=C(c1c(O)c3cc(F)ccc3n(Cc3ccc(F)cc3)c1=O)N2` as the compound, how does the melting point read?
Answer: > 240 °C

Question: With `CC(C)(C)[C@H]1C(O)=C(C2=CS(=O)(=O)c3cc(NS(N)(=O)=O)ccc3N2)C(=O)N1Cc1ccc(F)cc1` as the compound, how does the melting point read?
Answer: 150 to 156 °C

Question: For `CCCS(=O)(=O)Nc1ccc2c(c1)S(=O)(=O)C=C(c1c(O)c3cc(F)ccc3n(CCC3CC3)c1=O)N2.[Na]`, which melting point is on record?
Answer: > 250 °C

Question: For `CN(C)C(=O)COc1ccc2c(c1)S(=O)(=O)C=C(c1c(O)c3cc(F)ccc3n(Cc3ccc(F)cc3)c1=O)N2`, which melting point is on record?
Answer: > 250 °C

Question: For `CS(=O)(=O)Nc1ccc2c(c1)S(=O)(=O)C=C(c1c(O)c3cc(F)ccc3n(Cc3ccc(F)c(Cl)c3)c1=O)N2`, which melting point is on record?
Answer: 166 to 174 °C

Question: Which melting point does the source give for `CC(C)CCn1c(=O)c(C2=CS(=O)(=O)c3cc(NS(C)(=O)=O)ccc3N2)c(O)c2cc(F)ccc21` here?
Answer: 205 to 219 °C

Question: For `N#Cc1cccc(Cn2c(=O)c(C3=CS(=O)(=O)c4ccccc4N3)c(O)c3cc(F)ccc32)c1.[Na]`, which melting point is on record?
Answer: > 250 °C

Question: With `CC(C)(C)[C@H]1C(O)=C(C2=CS(=O)(=O)c3cc(N)ccc3N2)C(=O)N1Cc1ccc(F)cc1` as the compound, how does the melting point read?
Answer: 146 to 155 °C

Question: With `CN1C(c2nc(Cc3ccc(F)cc3)c3ccccc3c2O)=CS(=O)(=O)c2cc(Cl)ccc21` as the compound, how does the melting point read?
Answer: > 275 °C
